Measurements: patent US20110028758A1, “Trans-cinnamic acid derivative, its preparation mathod and the use” (priority 2007, published 2011)
In brackets after ≈: the same amount, converted by molar mass. Entries after “also recorded” stand apart in the source; their conditions may differ. Like-named read-outs stand apart in the source and are kept apart here.

Tests used:
[1] = single tail vein administration 350 mg/kg; for death / survival in acute toxicity test: 14 days observation, 350 mg/kg
Description: After the drug delivery, continuously observe the mice responses for 4 hours; after all, observe the mice twice a day (one is in the morning, and the other is in the afternoon) for 14 days, wherein the observation includes the appearance, behavior, secretions, excreta of the mice etc., and recording all the death situation, poisoning symptoms, the starting time and ending time of toxic reactions of the mice, severity, duration time of toxic, and to see if it is reversible reaction etc., sent it to the pathology examination if necessary, weight the mice before and after the drug delivered day of 3, 7, 10, and 14 days. After finishing the observation process, execute all of the mice, and anatomize the dead bodies of mice.

[2] = tested on: mucinous Human epidermoid A549 lung cancer cells; experiment: MTT anti-tumor test in vitro, A549; type: cell-based; settings: Homo sapiens, A549, 48 h
Description: (§1) A complete culture medium is used for diluting the above original solution into corresponding concentrations for later use.
(§2) Human cervical carcinoma Hela cells, human hepatoma BEL-7402 cells, mucinous Human epidermoid A549 lung cancer cells, human breast cancer MCF-7/S cells, human glioma U251 cells, and human normal embryonic kidney HEK-293 cells are purchased from USA, American Type Culture Collection (ATCC). All the tumor cells are used the DMEM medium (containing 10% FBS, 100 U/ml penicillin and 100 μg/ml streptomycin) for culturing and subculturing, and HEK-293 cells are using RPMI1640 medium (10% FBS, 100 U/ml penicillin, and 100 μg/ml streptomycin) for culturing and subculturing, wherein the culture condition is in a 5% CO2 incubator at 37° C.
(§3) Subculture six kinds of cells, which has a logarithmic growing period, adherent rate about 80%, and in good condition, such as human cervical carcinoma Hela cells, human hepatoma BEL-7402 cells, mucinous Human epidermoid A549 lung cancer cells, human breast cancer MCF-7/S cells, human glioma U251 cells, and human normal embryonic kidney HEK-293 cells. Discard the culture medium, rinse 1-2 times with PBS to remove serum, add 1 ml 0.25% Trypsin-0.01% EDTA (37° C. incubation) to digest for 1-2 minutes, add FBS culture medium to terminate the above digestion, centrifuge at a speed below 800 r/min for 2-3 minutes and discard the supernatant, re-suspended cells in 10% FBS medium, tack the cell suspension liquid for cell counting, adjust the density of the above liquid to 1×10^5/ml, then inoculate to a 96-holes plates (100 μl/hole), and then incubate in 5% CO2 incubator at 37° C. overnight. The next day add above cells to different concentrations of I-a, I-b, I-c and I-d, 100 μl/hole (its final concentration is respectively 30, 60, 120, 240, 480 μg/ml); meanwhile, set up the blank control group (0 μM), and establish 3 holes. Continuing the cultural process, discard the culture medium after 48 hours that the drug has been effected, add 100 μl PBS of 0.5 mg/ml MTT (PH 7.2) into each holes, after 4 hours culture, remove the culture medium by adherent cells express flipping method, add 100 μl of DMSO to each holes, oscillate it by micro-oscillation device for 5 minutes, and measure the OD value at 490 nm wavelength. Repeat the above experiment three times to get an average value. Calculate the inhibition rate (IR %) of the tumor cell proliferation in vitro from different concentrations of I-a, I-b, I-c, I-d by the following formula:
(§4) IR %=(1−ODsampale/ODcontrol)×100%
(§5) Use SPSS11.5 software to calculate the half inhibitory concentration IC50 of I-a, I-b, I-c and I-d. The results are shown in Table 2 to illustrate IC50 values (unit: μg/ml) of the four compounds.

[3] = tested on: human breast cancer MCF-7/S cells; experiment: MTT anti-tumor test in vitro, MCF-7/S; type: cell-based; settings: Homo sapiens, MCF7S, 48 h, MCF-7 (MCF-7/S)
Description: as §1, §2, §3, §4, §5

[4] = tested on: human hepatoma BEL-7402 cells; experiment: MTT anti-tumor test in vitro, BEL-7402; type: cell-based; settings: Homo sapiens, Bel-7402, 48 h, Bel- (BEL-7402)
Description: as §1, §2, §3, §4, §5

[5] = tested on: mice ascites hepatoma cell strain H22; experiment: Anti-tumor test in vivo, mice transplanted tumor of liver cancer H22; parameters: species or system Kunming mice
Description: The mice ascites hepatoma cell strain H22 is purchased from the Experimental Center of Zhongshan University.
Recovery the mice ascites hepatoma cell strain H22, put the cell suspension liquid into a centrifugal tube and use the 4° C. saline to wash the suspension liquid twice, then centrifuge to discard the supernatant, add appropriate 4° C. saline to dilute the suspension liquid, count cells with 0.2% trypan blue, adjust the density to 10^7 cell/ml, according to 0.2 (ml/mice) intraperitoneal inoculation H22 cell suspension liquid.
After ten days of the intraperitoneal inoculation, the cervical vertebra is dislocated. Disinfect the mice abdominal skin, and suck the milky ascites with a sterile syringe, then adjust the concentration of tumor cells to 1×10^7 cell/ml with injection used saline. Disinfect the right armpit skin of the Kunming mice with alcohol swab, subcutaneously vaccinate the cell suspension liquid 0.2 ml, conventional feeding. […] Totally there are 180 tumor-bearing mice.
The 180 tumor-bearing mice are divided into 18 groups by the weigh of the mice, wherein each group has 10 mice (half male and half female). The drug delivery methods of each group are shown in Table 3 to illustrate eighteen groups of mice drug delivery situation.
Group 1 is the model group, and the mice of group 1 are given the tail vein saline injection daily started on the second day of the tumor-bearing for 10 days.
Group 2 is the cyclophosphamide (CTX) group, and the mice of group 2 are only given the cyclophosphamide in the intraperitoneal of the mice on the second day of the tumor-bearing.
Group 3 to 18 groups are given the four compounds respectively, wherein the groups delivered 25 mg/kg drug are tail vein low-dose group, wherein the groups delivered 50 mg/kg drugs are the tail vein medium-dose group, wherein the groups delivered 100 mg/kg drugs are the tail vein high-dose group, wherein the groups delivered 200 mg/kg drugs are the oral enteral group. These mice from group 3 to 18 start the drug delivery on the second day of the tumor-bearing, and delivered once a day for 10 sequent days.
The above drug deliveries are 20 ml/kg.
After finishing the drug delivery process, weight the mice, then kill the mice by pulling off the neck, and anatomy to get the tumor tissue of the mice on the next day of finishing the drug delivery process, and then weight the anatomized tumor by electronic weighing scales to calculate the inhibition rate.

[6] = tested on: human glioma U251 cells; experiment: MTT anti-tumor test in vitro, U251; type: cell-based; settings: Homo sapiens, U-251, 48 h
Description: as §1, §2, §3, §4, §5

[7] = A549, average of three experiments ± SD, MTT, 48 hours, read-out: IC50 value
[8] = A549, experiment 2, MTT, 48 hours, read-out: IC50 value
[9] = A549, experiment 3, MTT, 48 hours, read-out: IC50 value
[10] = at 48 hours, read-out: A549 cell proliferation IC50 values
[11] = average of three experiments ± SD
[12] = i.g. 200 mg·(kg·d)^−1, once a day for 10 days
[13] = i.v. 25 mg·(kg·d)^−1, once a day for 10 days
[14] = i.v. 25 mg·(kg·d)^−1, once a day for 10 days (low-dose group)
[15] = i.v. 50 mg·(kg·d)^−1, once a day for 10 days
[16] = i.v. 50 mg·(kg·d)^−1, once a day for 10 days (medium-dose group)
[17] = i.v. 100 mg·(kg·d)^−1, once a day for 10 days
[18] = A549, experiment 1, MTT, 48 hours, read-out: IC50 value

COc1ccc(/C=C/C(=O)O)c(O)c1CC=C(C)C [I-a, (E)-2-hydroxy-4-methoxy-3-isopentenyl-cinnamic acid]
drug reaction after administration [1]: abnormally excited at first, and then become in an inhibit state | death / survival in acute toxicity test [1]: All the mice are survived; also recorded: no toxic deaths | IC50 [2, 7]: 118 ± 10.6 µg/mL (≈ 451 µM) | IC50 [2, 8]: 118 µg/mL (≈ 450 µM) | IC50 [2, 9]: 107 µg/mL (≈ 408 µM) | IC50 [2, 10]: 118 ± 10.6 µg/mL (≈ 451 µM) | IC50 [3, 11]: 225 ± 11.9 µg/mL (≈ 857 µM) | IC50 ([3]; experiment 2): 216 µg/mL (≈ 823 µM) | IC50 ([3]; experiment 3): 219 µg/mL (≈ 835 µM) | IC50 [4, 11]: 249 ± 17.9 µg/mL (≈ 950 µM) | IC50 ([4]; experiment 2): 237 µg/mL (≈ 904 µM) | IC50 ([4]; experiment 3): 269 µg/mL (≈ 1030 µM) | Tumor weight/g [5, 12]: 0.907 ± 0.424 g | Tumor weight/g [5, 13]: 1.398 ± 0.355 g | IR/% (inhibition rate) [5, 14]: 8.8% | Tumor weight/g [5, 15]: 1.047 ± 0.342 g | IR/% (inhibition rate) [5, 16]: 31.7% | Tumor weight/g [5, 17]: 0.775 ± 0.381 g | IC50 [6, 11]: 181 ± 7.98 µg/mL (≈ 691 µM) | IC50 ([6]; experiment 2): 173 µg/mL (≈ 660 µM) | IC50 ([6]; experiment 3): 180 µg/mL (≈ 686 µM)

COc1ccc(/C=C\C(=O)O)c(OC)c1CC=C(C)C [I-b, (Z)-2,4-dimethoxy-3-isopentenyl-cinnamic acid]
drug reaction after administration [1]: abnormally excited at first, and then become in an inhibit state | death / survival in acute toxicity test [1]: All the mice are survived; also recorded: no toxic deaths | IC50 [2, 7]: 218 ± 12.6 µg/mL (≈ 788 µM) | IC50 [2, 18]: 230 µg/mL (≈ 832 µM) | IC50 [2, 8]: 216 µg/mL (≈ 782 µM) | IC50 [2, 9]: 205 µg/mL (≈ 742 µM) | IC50 [2, 10]: 218 ± 12.6 µg/mL (≈ 788 µM) | IC50 [3, 11]: 311 ± 7.31 µg/mL (≈ 1130 µM) | IC50 ([3]; experiment 1): 312 µg/mL (≈ 1130 µM) | IC50 ([3]; experiment 2): 317 µg/mL (≈ 1150 µM) | IC50 ([3]; experiment 3): 303 µg/mL (≈ 1100 µM) | IC50 [4, 11]: 346 ± 10.1 µg/mL (≈ 1250 µM) | IC50 ([4]; experiment 1): 343 µg/mL (≈ 1240 µM) | IC50 ([4]; experiment 2): 357 µg/mL (≈ 1290 µM) | IC50 ([4]; experiment 3): 338 µg/mL (≈ 1220 µM) | Tumor weight/g [5, 12]: 1.108 ± 0.364 g | Tumor weight/g [5, 13]: 1.367 ± 0.524 g | IR/% (inhibition rate) [5, 14]: 10.8% | Tumor weight/g [5, 15]: 1.152 ± 0.47 g | IR/% (inhibition rate) [5, 16]: 24.8% | Tumor weight/g [5, 17]: 0.911 ± 0.417 g | IC50 [6, 11]: 287 ± 9.58 µg/mL (≈ 1040 µM) | IC50 ([6]; experiment 1): 277 µg/mL (≈ 1000 µM) | IC50 ([6]; experiment 2): 284 µg/mL (≈ 1030 µM) | IC50 ([6]; experiment 3): 298 µg/mL (≈ 1080 µM)

COc1ccc(/C=C/C(=O)O)c(OC)c1CC=C(C)C [I-c, (E)-2,4-dimethoxy-3-isopentenyl-cinnamic acid]
drug reaction after administration [1]: abnormally excited at first, and then become in an inhibit state | death / survival in acute toxicity test [1]: All the mice are survived; also recorded: no toxic deaths | IC50 [2, 7]: 158 ± 5.66 µg/mL (≈ 572 µM) | IC50 [2, 18]: 151 µg/mL (≈ 546 µM) | IC50 [2, 8]: 162 µg/mL (≈ 586 µM) | IC50 [2, 9]: 159 µg/mL (≈ 575 µM) | IC50 [2, 10]: 158 ± 5.66 µg/mL (≈ 572 µM) | IC50 [3, 11]: 235 ± 5.68 µg/mL (≈ 849 µM) | IC50 ([3]; experiment 1): 234 µg/mL (≈ 847 µM) | IC50 ([3]; experiment 2): 229 µg/mL (≈ 829 µM) | IC50 ([3]; experiment 3): 240 µg/mL (≈ 869 µM) | IC50 [4, 11]: 313 ± 11.7 µg/mL (≈ 1130 µM) | IC50 ([4]; experiment 1): 315 µg/mL (≈ 1140 µM) | IC50 ([4]; experiment 2): 300 µg/mL (≈ 1090 µM) | IC50 ([4]; experiment 3): 323 µg/mL (≈ 1170 µM) | Tumor weight/g [5, 12]: 0.866 ± 0.489 g | Tumor weight/g [5, 13]: 1.322 ± 0.278 g | IR/% (inhibition rate) [5, 14]: 13.7% | Tumor weight/g [5, 15]: 0.875 ± 0.379 g | Tumor weight/g [5, 17]: 0.782 ± 0.368 g | IC50 [6, 11]: 195 ± 7.31 µg/mL (≈ 704 µM) | IC50 ([6]; experiment 1): 202 µg/mL (≈ 731 µM) | IC50 ([6]; experiment 2): 192 µg/mL (≈ 695 µM) | IC50 ([6]; experiment 3): 188 µg/mL (≈ 680 µM)
